Publication PMC4936967 (Molecular cancer therapeutics, 2016)

Key:
[1] = target: GSK3α (Homo sapiens, UniProt P49840); assay: radioactive […]-ATP in vitro kinase assay, 10-dose IC50, […] ATP; format: biochemical
[2] = target: GSK3β (Homo sapiens, UniProt P49841); assay: as above; format: biochemical
Chain of GSK3β (P49841 whole entry): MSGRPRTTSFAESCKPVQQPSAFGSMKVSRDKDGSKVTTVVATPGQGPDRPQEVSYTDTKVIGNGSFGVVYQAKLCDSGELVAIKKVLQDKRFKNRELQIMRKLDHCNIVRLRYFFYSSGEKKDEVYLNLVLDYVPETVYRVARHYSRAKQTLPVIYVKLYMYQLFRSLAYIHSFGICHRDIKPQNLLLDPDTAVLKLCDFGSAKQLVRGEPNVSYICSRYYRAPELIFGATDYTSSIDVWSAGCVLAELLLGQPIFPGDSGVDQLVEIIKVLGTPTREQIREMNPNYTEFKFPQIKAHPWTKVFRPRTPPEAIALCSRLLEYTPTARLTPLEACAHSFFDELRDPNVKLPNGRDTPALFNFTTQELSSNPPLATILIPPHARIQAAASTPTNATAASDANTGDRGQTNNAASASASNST

Chain of GSK3α (P49840 2-483): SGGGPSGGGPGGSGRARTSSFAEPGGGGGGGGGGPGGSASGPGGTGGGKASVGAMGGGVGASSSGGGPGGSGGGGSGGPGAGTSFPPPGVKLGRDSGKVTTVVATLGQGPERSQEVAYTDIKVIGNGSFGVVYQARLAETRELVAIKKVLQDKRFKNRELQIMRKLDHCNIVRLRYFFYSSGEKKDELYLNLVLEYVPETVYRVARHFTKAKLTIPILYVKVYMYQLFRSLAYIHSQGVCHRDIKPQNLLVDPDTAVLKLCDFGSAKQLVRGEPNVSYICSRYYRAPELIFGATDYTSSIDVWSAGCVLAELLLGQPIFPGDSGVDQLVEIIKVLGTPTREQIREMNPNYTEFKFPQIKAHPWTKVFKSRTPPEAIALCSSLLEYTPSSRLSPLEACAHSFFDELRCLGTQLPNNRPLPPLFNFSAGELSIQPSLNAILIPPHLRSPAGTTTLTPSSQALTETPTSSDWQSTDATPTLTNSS

- IC50 [1]: 415 nM
- IC50 [2]: 521 nM
Substance: GS87
